Structures can show the parent of a compound that is named as a salt.

The subject of assay [1] is EAE induced in SJL mice by PLP139-151/CFA immunization. Briefly: EAE late therapeutic model of relapsing-remitting multiple sclerosis, treatment from Day 20 (Example 3). Format: in vivo, mouse. As for the experimental part: The effect of administration of two dosages of ACTH and β-endorphin on severity and relapse in EAE was evaluated. EAE was induced in SJL mice by PLP139-151/CFA immunization on Day 0. Treatment was late therapeutic, starting on Day 20 after immunization for each mouse. Mice were observed through the end of the study, Day 42 after immunization. Four groups of 20 mice each received one of the following treatments: vehicle (a negative control); 10 mg/kg oral prednisolone daily (reference treatment); 32 μg ACTH+16 μg endorphin by subcutaneous injection, every 2nd day (low dose); or 64 μg ACTH+32 μg β-endorphin by subcutaneous injection, every 2nd day (high dose).
Mice were injected subcutaneously at four sites in the back with emulsion containing PLP139-151 (native sequence) from HOOKE KIT™ PLP139-151/CFA Emulsion, catalog number EK-0120 (Hooke Laboratories, Lawrence Mass.). Two sites of injection were in the upper back approximately 1 cm caudal of the neck line. The other two sites were in the lower back approximately 2 cm cranial of the base of the tail. The injection volume was 0.05 mL at each site. Even without treatment, most mice recover spontaneously after the first wave of disease. In the SJL model, EAE develops 10-15 days after immunization in 90-100% of immunized mice. The first wave of EAE lasts several days and most mice fully or almost fully recover from this first wave. After a disease-free period, which can last from one day to several months, most mice relapse. During the first 5-7 weeks after immunization, 50-100% of mice will develop a relapse. Each wave of paralysis results in body weight loss at onset, most of which is regained at recovery from the wave. The greatest weight loss is during the first wave of EAE. During the chronic phase of disease, the average EAE body weight is relatively stable, with normal slow increase with age. Since individual mice experience relapses at different times, only a few mice in each group are acutely sick at any given time after the first wave of EAE. Therefore, significant differences in relative body weight between groups are often not found after the first wave of disease in this model. In the vehicle treated group, disease developed as expected for this model. Five (5) mice were euthanized on Day 30 for analysis. Relapse occurred in 7 out of the 15 remaining mice, which were followed to Day 42, with typical course and severity of disease.
100 EAE induced mice were initially considered a single group and were scored daily starting on Day 9 after immunization. […]
Treatment started on the day of group assignment (Day 20 after immunization). […] EAE score was determined daily by a person unaware of both treatment and of previous scores for each mouse. Weight was measured 3 times a week. […]

Assay [2] relates to EAE induced by PLP139-151/CFA Emulsion PTX. The conditions noted are these: past experience with this model; cited from earlier work.
For assay [3] the test system is unchanged. As to the kind of experiment: EAE prophylactic model, treatment from immunization, with pertussis toxin (Example 5). It counts as in vivo, mouse. The conditions noted are these: 3 mg/kg p.o. daily. On the procedure:
The efficacy of the combination of ACTH and β-endorphin was also tested in a prophylactic model of EAE. In contrast with the therapeutic model used above, in which treatment is initiated only after EAE onset and recovery from the first wave of the disease, in the prophylactic model, treatment is initiated at the time of immunization and the mice are followed for only 3 weeks. Additionally, pertussis toxin (PTX) is used as an additional adjuvant in the immunization, producing a more sever first wave of disease with slower recovery.
Mice were injected subcutaneously at four sites in the back with 0.05 mL of the emulsion component of HOOKE KIT™ PLP139-151/CFA Emulsion PTX (catalog number EK-2120; Hooke Laboratories, Lawrence Mass.). Two sites of injection were in the upper back approximately 1 cm caudal of the neck line. The other two sites were in the lower back approximately 2 cm cranial of the base of the tail. Two hours later the pertussis toxin component of the kit was administered intraperitoneally. A 30 ng dose of PTX was used to attain optimal disease severity. Mice were administered vehicle or 128 μg ACTH+64 μg β-endorphin by subcutaneous injection every 2nd day, as a negative control and test treatment, respectively. As reference treatment (positive control) mice received 3 mg/kg FTY720 daily by oral administration. There were 12 mice in each of these three groups. The vehicle and test treatment groups were dosed from Day 0 through Day 18 (the last dose in the test treatment group was 88 μg ACTH+44 μg β-endorphin due to lab mishap). The reference treatment group was dosed from Day 0 through Day 19. Clinical scoring was as presented in Table 4 (above) beginning on Day 7 and continuing through Day 20.

The test system of assay [4] is EAE induced in SJL mice by PLP139-151/CFA immunization. As to the kind of experiment: EAE therapeutic model repeated with greater doses, FTY720 reference (Example 4). Format: in vivo, mouse. On the procedure:
To further explore the effect of dosage, the model was repeated, essentially as described in Example 3, using greater doses, specifically 53 μg of ACTH+27 μg of β-endorphin (low dose), and 128 […] of ACTH+64 μg of β-endorphin (high dose). Additionally FTY720 (fingolimod, an FDA-approved drug for the treatment of multiple sclerosis) was used as a reference (positive control) treatment instead of prednisolone, which had not shown strong efficacy in Example 3. FTY720 is one of the most efficacious drugs in both EAE and MS. Immunization was on Day 0, treatment started on Day 20, and the mice were observed through Day 42.
Histological analysis confirmed the clinical findings (Table 9). Histologic readouts were inflammatory foci per section, demyelination (based on anti-myelin basic protein (MBP) staining), and apoptotic cells per section. […] A low number of inflammatory infiltrates confirms absence of both clinical and subclinical inflammation in the CNS. Histological findings in the high dose test group were generally similar to the FTY720 reference group.

The conditions of assay [5]: per one mg of ACTH, based on rat potency testing; cited from earlier work.

As to `C[C@]12C=CC(=O)C=C1CC[C@@H]1[C@@H]2[C@@H](O)C[C@@]2(C)[C@H]1CC[C@]2(O)C(=O)CO` [Prednisolone, prednisolone], the “Change in body weight versus vehicle control (FIG. 2)” value in assay [1] (10 mg/kg p.o. daily) is “statistically significant loss of weight versus the vehicle control”. The “MMS of relapse period ± SD (Days 25-42)” value in assay [1] (10 mg/kg p.o. daily from Day 20, mean maximal score) was found to be 2.07. The “Iba1 ± SD (% of area)” value in assay [1] (10 mg/kg p.o. daily, microglial activation, % of total spinal cord area) is on record as 4.0 ± 1.2 % of area. Also, the “Mean clinical score over the course of the study (FIG. 1), compared to vehicle” value in assay [1] (reference treatment 10 mg/kg p.o. daily) is “more moderate benefit”.

In the case of `COC(=O)/C=C/C(=O)OC` [TECFIDERA®, dimethyl fumarate], the “Complete suppression of development of EAE” value in assay [2] is “neither COPAXONE® (glatiramer acetate injection) nor TECFIDERA® (dimethyl fumarate) completely suppressed development of EAE”.

As for `CCCCCCCCc1ccc(CCC(N)(CO)CO)cc1` [FTY720, fingolimod], in assay [3] (Day 0-19), the “End % body weight ± SD” value is recorded as 98.3% ± 7.8% and the “MMS ± SD” value is reported as 0.92 ± 1.16. The “End score ± SD” value in assay [3] (Day 0-19, Day 20) is 0.79 ± 1.01. In addition, the “Median day of onset (all mice)” value in assay [3] (Day 0-19, cannot be calculated if ≤50% of mice developed disease) is recorded as >20.0^1. The “EAE incidence (%)” value in assay [3] (Day 0 through Day 19, scored through Day 20) came out at 41.7%. In assay [4] (1 mg/kg p.o. QD), the “Apoptotic cells/section ± SD” value was determined as 0.3 ± 0.4 cells/section and the “Demyelination (anti-MBP) ± SD” value is 0.1 ± 0.2. In assay [4] (1 mg/kg p.o. QD from Day 20), the Incidence of relapse is given as 12.5% and the “MMS of relapse period ± SD (Days 20-42)” value stood at 1.94 ± 0.50. In addition, the “End % body weight ± SD” value in assay [4] (1 mg/kg p.o. QD from Day 20, % of starting weight) is 97.65 ± 5.3%. Moreover, the “End score ± SD” value in assay [4] (1 mg/kg p.o. QD from Day 20, Day 42) is 1.06 ± 0.62. Moreover, the “Inflammatory foci/section ± SD” value in assay [4] (1 mg/kg p.o. QD, spinal cord histology) is given as 0.5 ± 0.4 foci/section.

Take “ACTH: 39 amino acid peptide, adrenocorticotropic hormone (SYSMEHFRWGKPVGKKRRPVKVYPNGAEDESAEAFPLEF; Corticotropin; UniProt P01189 138-176, looked up)”: in assay [5], the “Potency of ACTH in units” value is recorded as “about 150 units”.

(Values after US11285192B2, “Formulation including a combination of beta-endorphin and adrenocorticotropic hormone” (Adamis Pharmaceuticals Corporation, priority 2019, dated 2022).)
